Experimental findings from ChEMBL document CHEMBL1143379, “Isolation, structure elucidation and cytotoxic evaluation of endiandrin B from the Australian rainforest plant Endiandra anthropophagorum” (Bioorg Med Chem, 2009) are described below.

The test system of test [1] is A549. The test can be described thus: Induction of early stage apoptosis in human A549 cells assessed as mitotracker dye uptake. It counts as functional, cell-based.
Test [2] relates to A549. The test can be described thus: Cytotoxicity against human A549 cells after 24 hrs by YO-PRO-1 assay. It counts as functional, cell-based. As to conditions: A549, 24 h.
Test [3] has as its system A549. The test can be described thus: Cytotoxicity against human A549 cells after 24 hrs by propidium iodide assay. It counts as functional, cell-based. The conditions noted are these: A549, 24 h.
Test [4] deals with A549. The test can be described thus: Cytotoxicity against human A549 cells at 100 uM. It counts as functional.
In test [5] the test system is A549. The test can be described thus: Induction of early stage apoptosis in human A549 cells assessed as mitotracker dye uptake at 30 uM after 24 hrs. It counts as functional, cell-based.

The source made the active and inactive calls. The rule behind the calls is not given here.

What is called IC50 is the concentration at which inhibition is half-maximal. `COc1cc(C[C@@H](C)[C@H](C)Cc2ccc(O)c(OC)c2)ccc1O` [(-)-DIHYDROGUAIARETICACID]: the IC50 with A549 [1] stood at 31.2 µM; with A549 [2] it was 7.49 µM; in the test on A549 [3], 7.49 µM. The inhibition is the percentage by which the read-out fell short of the control. High values mean a strong effect, low ones a weak effect. Compound `COc1ccc([C@@H]2[C@@H](C)[C@@H](C)[C@@H]2c2ccc(OC)c(OC)c2)cc1OC` [CINBALANSAN] returned an inhibition at 100 µM in the test with A549 [4] of 34%. Besides, the outcome in the test with A549 [5] was Active. On to `COc1cc2c(c(OC)c1OC)-c1ccc(OC)c(=O)cc1[C@@H](NC(C)=O)CC2` [COLCHICINE], for which the IC50 with A549 [2] and in the test with A549 [3] was 0.0108 µg/mL throughout.

In the case of `COc1cc([C@@H]2[C@@H](C)[C@H](C)[C@H]2c2ccc(O)c(OC)c2)ccc1O` [ENDIANDRIN A], the inhibition at 100 µM in the test with A549 [4] was found to be 76%.

`COc1cc([C@@H]2[C@@H](C)[C@@H](C)[C@@H]2c2ccc(O)c(OC)c2)ccc1O` [ENDIANDRIN B] gave an inhibition at 100 µM in the test on A549 [4] of 75%.

In the test on A549 [2], `CC(=O)O[C@H]1C(=O)[C@@]2(C)[C@H]([C@H](OC(=O)c3ccccc3)[C@]3(O)C[C@H](OC(=O)[C@H](O)[C@@H](NC(=O)c4ccccc4)c4ccccc4)C(C)=C1C3(C)C)[C@]1(OC(C)=O)CO[C@@H]1C[C@@H]2O` [PACLITAXEL] registered an IC50 of 0.0196 µg/mL. With `COC[C@H]1OC(=O)c2coc3c2[C@@]1(C)C1=C(C3=O)[C@@H]2CCC(=O)[C@@]2(C)C[C@H]1OC(C)=O` [WORTMANNIN], the IC50 in the test with A549 [2] and in the test on A549 [3] was 0.00428 µg/mL in each case.
